# Legend:
# [1] = test system: caspase 3/7 activity in HepG2 cells; test: TNFα-induced apoptosis (caspase 3/7 activity) in HepG2 cells; type: cell-based, human; settings: for increased caspase 3/7 activity: 24 hours
# Protocol: In order to evaluate the effect of NTZ on human hepatocytes that undergo a cellular stress induced by cytokines, the human hepatoblastoma-derived HepG2 cell line (#85011430, ECACC, UK) was cultured with or without TZ, the active metabolite of NTZ, in high-glucose DMEM medium (#41965, Gibco, France) supplemented with 10% of fetal bovine serum (FBS, #10270, Gibco), 1% penicillin/streptomycin (#15140, Gibco), 1% sodium pyruvate (#11360, Gibco) and 1% MEM non-essential amino acids (#11140, Gibco) in a 5% CO2 incubator at 37° ° C. To evaluate caspase 3/7 activity, which is a surrogate marker of apoptosis, 5×10^4 cells were plated in a 96-well plate (Thermo Fischer, Germany). After cell adherence (8 hours), cells were pre-treated with a dose range of 0.3 to 3 μM of TZ (Interchim, France), in FBS-deprived cell culture medium for 16 h. Thereafter, tumor necrosis factor α (TNFα) (#C6378, Promocell, Germany) was added to the wells at the dose of 10 or 30 ng/ml for additional 24 hours. Staurosporine (10 μM) (#19-123MG, Sigma-Aldrich, Germany) was used as a reference to induce apoptosis. Cells were incubated with staurosporine 3 hours before Caspase activity measurement. Caspase 3/7 activity was measured using Caspase Glow™ 3/7 assay (#G8093, Promega, USA). Luminescence was measured using a Spark microplate reader (#30086376, Tecan, USA). The amount of luminescence (RLU) directly correlates with caspase 3/7 activity.
# [2] = test system: caspase 3/7 activity in HepG2 cells; test: Staurosporine-induced apoptosis (caspase 3/7 activity) in HepG2 cells; type: cell-based, human; settings: for inhibition at 6 µM: Homo sapiens, HepG2, 6 μM
# Protocol: The human hepatoblastoma-derived HepG2 cell line was cultured as described in Example 2. Caspase 3/7 activity was assessed in 1.5×10^4 cells plated in a 384-well plate (#781080, Greiner, France). After cell adherence (8 hours), cells were serum starved for 16 h with or without TZ, the active metabolite of NTZ. […] Caspase 3/7 activity was measured as previously described.
# [3] = test system: polymicrobial sepsis induced by cecal ligation and puncture (CLP); test: CLP-induced polymicrobial sepsis, survival (Example 1); type: in vivo, C57BL6J male mice
# Excerpt: Polymicrobial sepsis induced by cecal ligation and puncture (CLP) is characterized by dysregulated systemic inflammatory responses followed by immunosuppression. The CLP model in mice mimics the progression and features of human sepsis and is thus also useful to determine whether a drug would be efficient in the treatment of prevention of transition from sepsis to septic shock.
# This study aims to investigate the efficacy of NTZ in CLP model in C57BL6J (BL6) male mice. The efficacy of the test compound was evaluated based on the survival rate of the animals within the study period.
# C57BL6J male mice (supplier Janvier—France) at 9 weeks of age and weighing 23-25 g on arrival were anesthetized with 250 µL of xylazine/ketamine solution (6.75 mg/kg for ketamine (Imalgene, Boehringer, Germany) et 2.5 mg/kg for xylazine (Rompund 2%, Bayer, Germany)) by intraperitoneal route. A 1-1.5 cm abdominal midline incision was made, and the cecum was located and tightly ligated at half the distance between distal pole and the base of the cecum with 4-0 silk suture (mild grade). The caecum was punctured through-and-through once with a 21-gauge needle from mesenteric toward antimesenteric direction after medium ligation. A small amount of stool was extruded to ensure that the wounds were patent. Then the cecum was replaced in its original position within the abdomen, which was closed with sutures and wound clips. Mice were followed for body weight evolution and mortality rate until Day 7.
# NTZ (Interchim, France) was administered by oral gavage at 50 mg/kg BID. NTZ treatment was initiated 3 days before CLP. The day of the surgery, NTZ was given once (50 mg/kg) 1 h before CLP and then a second time when animals have recovered from anesthesia (50 mg/kg). BID treatments was then pursued daily until the end of the study (n=15). Mice receiving NTZ vehicle (carboxymethylcellulose (#C4888, Sigma-Aldrich, Germany) BID served as controls (n=10). […]
# [4] = test system: polymicrobial sepsis induced by CLP surgery; test: CLP-induced sepsis, survival and welfare scoring, NTZ with or without 3-day pretreatment (Example 4); type: in vivo, C57BL6J mice; settings: for mortality at 55 hours post-surgery: control group 60%; for mice survived sepsis at the end of the study: untreated 12.5%
# Protocol: Polymicrobial sepsis was induced by CLP surgery in C57BL6J mice, as described in Example 1. NTZ was prepared as previously described and administrated per os at 100 mg/kg/day BID either starting 3 days before CLP (3 day pretreatment) or starting on the same day as the CLP surgery (without pretreatment) as shown in FIG. 5A. C57BI/6J male mice (8 week-old, Janvier, France) were divided into 3 groups of 24 mice each, after 7 days acclimation: • Group 1 received vehicle for 3 days before surgery and for 6 days after CLP surgery. • Group 2 received nitazoxanide (NTZ) for 3 days before surgery and then for 6 days after CLP surgery (pretreatment). • Group 3 received vehicle for 3 days before surgery and then NTZ for 6 days after CLP surgery (without pretreatment).
# Treatments with NTZ were made twice daily at 9 am and […]. The day of the CLP surgery (Day 0), mice received NTZ or vehicle one hour before being anaesthetized (groups 2 and 3).
# Welfare scoring of severity of murine sepsis model has been published to harmonize human end points and also to normalize grades observed between animals throughout experiments (Shrum B, Anantha R V, Xu S X et al. A robust scoring system to evaluate sepsis severity in an animal model. BMC Res Notes 2014; 7:233). Animals were individually observed, and changes were recorded and scored according to their intensity. Observations included changes in appearance, activity, response to stimuli, eyes opening, breathing quality and evolution of body weight. For each of these clinical signs, the severity was measured on a scale of 0 to 3. The evolution of the severity was followed and the mean score at each time point was calculated and plotted on graphs. Arbitrary, when mice die or are euthanized, they are scored at 4.
# [5] = test system: polymicrobial sepsis induced by CLP surgery; test: CLP-induced sepsis, survival and welfare scoring, NTZ before/after or only after surgery (Example 5); type: in vivo, C57BL6J mice; settings: for mortality at 55 hours post-surgery: control group 55%; for mice survived sepsis at the end of the study (day 7): untreated 20%
# Protocol: Polymicrobial sepsis was induced by CLP surgery in C57BL6J mice, and NTZ was prepared and administrated per os, as described previously. […]
# During the 6 days following the surgery, treatments with NTZ were made twice daily at 9 am and 5 pm at the dose of 100 mg/kg/day (p.o. BID) per mouse. Control mice received vehicle the same way to avoid any deviations between control and treated mice.
# [6] = concomitant addition with staurosporine, without pretreatment
# [7] = NTZ per os 100 mg/kg/day BID from day of CLP, without pretreatment
# [8] = NTZ per os 100 mg/kg/day BID with 3-day pretreatment
# [9] = NTZ BID T-1 h/T+3.5 h, 100 mg/kg/day p.o.
# [10] = NTZ QD T+3.5 h (100 mg/kg) then 50 mg/kg BID p.o.
compound,measurement,setting,value
"O=C(Nc1ncc([N+](=O)[O-])s1)c1ccccc1O [TZ, tizoxanide]",inhibition at 3 µM,"[1]; Homo sapiens, 3 μM TZ, 16 h pretreatment, 10 ng/ml TNFα",40%
same,reduction of caspase activity,"[1]; TZ pretreatment, higher TNFα dose (30 ng/ml)",this effect was confirmed with the higher TNFα dose
same,inhibition at 6 µM,"[2]; 16 h pretreatment, staurosporine 30 μM",82%
same,inhibition at 6 µM,[2]; [6],64%
TNFα,increased caspase 3/7 activity,[1]; 10 ng/ml TNFα,1.5 fold
same,increased caspase 3/7 activity,[1]; 30 ng/ml TNFα,1.7 fold
CN[C@@H]1C[C@H]2O[C@@](C)([C@@H]1OC)n1c3ccccc3c3c4c(c5c6ccccc6n2c5c31)C(=O)NC4 [staurosporine],increase of caspase 3/7 activity,"[2]; staurosporine 30 μM, 4 hours",11 fold
C[C@@H](O)[C@H]1C(=O)N2C(C(=O)O)=C(S[C@@H]3CN[C@H](C(=O)Nc4cccc(C(=O)O)c4)C3)[C@H](C)[C@H]12 [Ertapenem],mice saved at the end of the study,"[3]; Ertapenem 10 mg/kg intraperitoneal, 1 h before surgery and daily after CLP, Day 7",10%
"CC(=O)Oc1ccccc1C(=O)Nc1ncc([N+](=O)[O-])s1 [NTZ, [2-[(5-nitro-1,3-thiazol-2-yl)carbamoyl]phenyl]ethanoate]",mice survived 7 days after intervention,"[3]; NTZ oral gavage 50 mg/kg BID, started 3 days before CLP",33%
same,mice still alive 3 days after surgery,"[3]; NTZ oral gavage 50 mg/kg BID, started 3 days before CLP, vehicle group 100% mortality at 3 days",47%
same,inhibition at 6 µM,[2]; [6],78%
same,mortality at 55 hours post-surgery,[4]; [7],17%
same,mice survived sepsis at the end of the study,[4]; [7],58.3%
same,mortality at 55 hours post-surgery,[4]; [8],25%
same,mice survived sepsis at the end of the study,[4]; [8],45.8%
same,mortality at 55 hours post-surgery,[5]; [9],5%
same,mice survived sepsis at the end of the study (day 7),[5]; [9],80%
same,mortality at 55 hours post-surgery,[5]; [10],15%
same,mice survived sepsis at the end of the study (day 7),[5]; [10],70%
